Measurements reported in patent US8329639B2, “MUC1 based glycolipopeptide vaccine with adjuvant” (priority 2011, dated 2012).

Key:
[1] = tested on: B16-MUC1 tumor cells; experiment: Tumor growth, B16-MUC1 model; type: in vivo, C57B1/6 mice; conditions: 50 μg Liposomal PET Lipid A, value stated jointly with saline group
Description: (§1) C57B1/6 mice were treated using a bi-weekly schedule with saline vehicle, 50 μg Liposomal PET Lipid A or 5 μg of liposomal vaccine formulation of Example 1 starting on day −42. On Day 0, mice were challenged with either 2×10^6 B16-MUC1, 0.5×10^6 B16, or 2×10^6MC38-MUC1 tumor cells followed by two additional vaccinations on days +3 and +17. Tumor growth was recorded twice weekly.
In the B16-MUC1 model, animals treated with the Example 1 vaccine formulation had no tumors at Day 44. 9/12 animals were tumor free in the Example 1 vaccine formulation group at end of study. […] Mean tumor volume in these two groups was about 200 mm^3 by Day 10. By Day 24, mean tumor volume was about 1200 mm^3 for the saline and PET lipid A groups.

[2] = tested on: MC38-MUC1 tumor cells; experiment: Tumor growth, MC38-MUC1 model; type: in vivo, C57B1/6 mice; conditions: vaccine 5 μg, Liposomal PET Lipid A 50 μg
Description: as §1
In the MC38-MUC1 model, 3/12 animals were tumor free in the Example 1 vaccine formulation group at the end of the study. […] By Day 32, mean tumor volume was about 120 mm^3 for the Example 1 vaccine formulation group as compared to about 1200 mm^3 for the PET lipid A group and about 1700 mm^3 for the saline group.

[3] = tested on: MUC1 antigen having SEQ ID NO: 2; experiment: Humoral response: serum IgG ELISA on plates coated with MUC1 antigen; type: in vivo, C57B1/6J mice; conditions: vaccine 5, 25 and 100 μg/mouse; PET lipid A 50 μg; serially diluted sera
Description: C57B1/6J mice were injected with a liposomal vaccine formulation of Example 1 in three different concentrations of vaccine (5, 25 and 100 μg). 50 μg dose of PET lipid A and saline were used as a negative control. Sera from the mice were isolated and subsequently serially diluted and incubated onto plates coated with MUC1 antigen having SEQ ID NO: 2. After incubation with sera, the plates were washed and a labeled anti-mouse IgG specific antibody was added. The antibody was washed off and the mouse IgG was measured via an ELISA reader.

pentaerythritol-6-chain-C14-glucosamine-mono-phosphate [PET lipid A]
mean tumor volume by Day 10 [1]: about 200 mm^3
mean tumor volume by Day 24 [1]: about 1200 mm^3
mean tumor volume by Day 32 [2]: about 1200 mm^3
antibody (IgG) response by ELISA [3]: no antibody response
